Patent US7504430B2, “Maleiimide anti-tumor phosphatase inhibitors” (The United States of America as represented by the …, priority 2004, dated 2009)
Where two headings read alike, the source gives them in different places.

Assays:
[1] = system: Hep3B cells; test: Hep3B cell growth inhibition (Hoechst 33258 DNA fluorescence, 3 days of treatment); format: cell-based, human; conditions: for Potency at Hep3B cell growth inhibition compared with Cpd5: versus Cpd5 (2-(2-mercaptoethanol)-3-methyl-1,4-naphthoquinone); for Inhibition of Hep3B cell growth: even at 10 μM
Description: Hep3B or JM-1 hepatoma cells were grown in tissue culture in MEM medium supplemented with 10% fetal bovine serum. Cells were plated at a density of 1×104. […] Culture medium was replaced every day with new medium containing the inhibitor. After 3 days of treatment, the cells were rinsed once with PBS and frozen at −80° C. until counting. Frozen cells were thawed and incubated with the DNA-staining dye Hoescht 33258. The cell numbers were determined by measuring the dye-bound DNA fluorescence by a fluorescent plate reader.
(§1) IC50 was determined from the growth inhibition curves.

[2] = system: MCF7; test: Tumor cell line growth inhibition, MCF7; format: cell-based; conditions: Homo sapiens, 72 h; Breast, MCF7, cultured for 3 days; maximum concentration 20 μmol/L
Description: as §1

[3] = system: cell cycle; test: Cell cycle analysis; format: cell-based; conditions: with upregulation of tyrosine phosphorylation of Cdk1, 2 and 4
[4] = system: LS180; test: Tumor cell line growth inhibition, LS180; format: cell-based; conditions: Homo sapiens, 72 h; Colon, LS180, cultured for 3 days; maximum concentration 20 μmol/L
Description: as §1

[5] = target: T1, PYP1B (Homo sapiens, UniProt P18031); test: Phosphatase inhibition, PYP1B; format: biochemical
T1 sequence (P18031 1-435): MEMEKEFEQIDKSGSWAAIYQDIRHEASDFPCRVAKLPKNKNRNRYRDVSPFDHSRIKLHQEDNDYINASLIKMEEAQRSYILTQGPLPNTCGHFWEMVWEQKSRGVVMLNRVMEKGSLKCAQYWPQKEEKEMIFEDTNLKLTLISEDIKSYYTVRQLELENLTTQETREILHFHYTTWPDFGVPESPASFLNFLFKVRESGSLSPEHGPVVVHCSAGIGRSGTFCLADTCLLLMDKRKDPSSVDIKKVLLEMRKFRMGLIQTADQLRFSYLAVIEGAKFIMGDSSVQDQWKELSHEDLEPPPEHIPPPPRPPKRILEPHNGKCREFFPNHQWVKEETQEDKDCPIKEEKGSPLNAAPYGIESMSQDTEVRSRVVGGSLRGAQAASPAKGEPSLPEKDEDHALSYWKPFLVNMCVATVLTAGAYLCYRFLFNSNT

[6] = system: SKBR3; test: Tumor cell line growth inhibition, SKBR3; format: cell-based; conditions: Homo sapiens, SK-BR-3, 72 h; Breast, SKBR3, cultured for 3 days; maximum concentration 20 μmol/L
Description: as §1

[7] = target: T2, MKP1 (Homo sapiens, UniProt P28562); test: Phosphatase inhibition, MKP1; format: biochemical
T2 sequence (P28562 1-367): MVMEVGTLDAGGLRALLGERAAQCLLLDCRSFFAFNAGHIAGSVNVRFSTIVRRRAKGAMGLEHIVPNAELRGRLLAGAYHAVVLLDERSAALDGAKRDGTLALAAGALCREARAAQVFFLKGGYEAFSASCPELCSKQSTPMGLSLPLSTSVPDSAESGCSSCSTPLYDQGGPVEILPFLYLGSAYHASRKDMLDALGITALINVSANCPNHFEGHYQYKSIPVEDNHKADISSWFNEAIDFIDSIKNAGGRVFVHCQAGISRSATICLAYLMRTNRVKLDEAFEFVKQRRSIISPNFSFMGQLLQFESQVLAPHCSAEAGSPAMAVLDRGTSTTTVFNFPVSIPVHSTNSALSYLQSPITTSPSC

[8] = system: PCI; test: Tumor cell line growth inhibition, PCI; format: cell-based; conditions: Homo sapiens, 72 h, Tongue, cultured for 3 days, maximum concentration 20 μmol/L
Description: as §1

[9] = system: HR; test: Tumor cell line growth inhibition, HR; format: cell-based; conditions: Homo sapiens, 72 h, Stomach, cultured for 3 days, maximum concentration 20 μmol/L
Description: as §1

[10] = system: primary cultures of normal hepatocytes; test: DNA synthesis in primary cultures of normal hepatocytes versus Hep3B hepatoma cells; format: cell-based
[11] = system: FemX; test: Tumor cell line growth inhibition, FemX; format: cell-based; conditions: Homo sapiens, Fem-X, 72 h, Skin, cultured for 3 days, maximum concentration 20 μmol/L
Description: as §1

[12] = target: T3, catalytic domain of Cdc25B (Homo sapiens, UniProt P30305); test: Binding to the catalytic domain of Cdc25B
T3 sequence (P30305 431-538 limits assumed): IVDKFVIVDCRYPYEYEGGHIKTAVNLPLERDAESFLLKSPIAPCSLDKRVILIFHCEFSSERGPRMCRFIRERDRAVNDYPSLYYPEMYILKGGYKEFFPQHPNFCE

[13] = system: JM-1 rat hepatoma cells; test: Orthotopic rat tumor model, JM-1 hepatoma cells seeded into livers of F344 rats; format: in vivo; conditions: 1 mg/kg intraperitoneal, every other day, 5 injections, control rats averaged 11 tumors per liver
Description: JM-1 rat hepatoma cells were seeded into livers of F344 rats. […] The control rats had on the average 11 tumors per liver, whereas the PM-20-treated rats had 2 tumors per rat.

[14] = target: T4, CD45 (Homo sapiens, UniProt P08575); test: Phosphatase inhibition, CD45; format: biochemical
T4 sequence (P08575 26-1306): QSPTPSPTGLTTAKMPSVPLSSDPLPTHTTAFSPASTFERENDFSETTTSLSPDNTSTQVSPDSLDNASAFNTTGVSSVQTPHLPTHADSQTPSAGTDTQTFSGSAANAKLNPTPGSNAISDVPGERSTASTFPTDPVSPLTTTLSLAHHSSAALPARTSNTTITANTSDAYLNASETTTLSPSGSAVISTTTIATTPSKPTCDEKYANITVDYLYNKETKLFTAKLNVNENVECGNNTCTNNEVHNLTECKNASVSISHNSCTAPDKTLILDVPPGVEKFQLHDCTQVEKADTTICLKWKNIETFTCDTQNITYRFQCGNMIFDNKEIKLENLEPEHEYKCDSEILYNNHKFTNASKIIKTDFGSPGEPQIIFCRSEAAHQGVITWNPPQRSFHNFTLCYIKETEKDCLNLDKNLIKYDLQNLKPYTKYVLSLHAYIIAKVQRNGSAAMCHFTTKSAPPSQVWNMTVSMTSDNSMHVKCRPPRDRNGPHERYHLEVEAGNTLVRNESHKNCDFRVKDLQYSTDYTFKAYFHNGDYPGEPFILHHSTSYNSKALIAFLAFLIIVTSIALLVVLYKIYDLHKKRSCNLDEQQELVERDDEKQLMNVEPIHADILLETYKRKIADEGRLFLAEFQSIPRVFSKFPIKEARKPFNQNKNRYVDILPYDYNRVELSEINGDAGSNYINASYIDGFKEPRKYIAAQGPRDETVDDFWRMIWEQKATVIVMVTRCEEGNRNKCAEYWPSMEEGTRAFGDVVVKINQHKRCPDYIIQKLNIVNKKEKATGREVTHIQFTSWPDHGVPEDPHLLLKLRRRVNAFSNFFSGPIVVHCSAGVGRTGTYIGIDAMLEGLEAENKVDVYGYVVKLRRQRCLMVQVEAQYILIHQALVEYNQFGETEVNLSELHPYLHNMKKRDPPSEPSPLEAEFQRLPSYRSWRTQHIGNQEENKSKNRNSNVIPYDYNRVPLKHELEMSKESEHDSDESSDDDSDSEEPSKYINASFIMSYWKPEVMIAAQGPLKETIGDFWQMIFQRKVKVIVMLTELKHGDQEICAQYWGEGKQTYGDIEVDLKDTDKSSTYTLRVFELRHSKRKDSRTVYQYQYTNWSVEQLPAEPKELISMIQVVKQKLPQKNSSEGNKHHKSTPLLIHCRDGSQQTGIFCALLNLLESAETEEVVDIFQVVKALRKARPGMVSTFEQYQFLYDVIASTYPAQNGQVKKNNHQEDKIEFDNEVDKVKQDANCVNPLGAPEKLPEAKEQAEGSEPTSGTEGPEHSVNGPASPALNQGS

[15] = system: EGFR and ERK1/2; test: Tyrosine phosphorylation of EGFR and ERK1/2; format: cell-based
[16] = orally in mice; cited from earlier work
[17] = Homo sapiens, 72 h, Hep3B cells, 3 days of treatment, read-out: IC50, Hep3B cell growth inhibition
[18] = Homo sapiens, 72 h, Liver, Hep3B, cultured for 3 days, maximum concentration 20 μmol/L, read-out: IC50

## COc1ccc(N2C(=O)C(SCCO)=C(SCCO)C2=O)cc1 [PM-14, 3,4-bisthiolethanol-1-p-methoxyphenyl maleiimide]
[1]; [17]
  IC50: 6 µM

## O=C1C(SCCO)=C(SCCO)C(=O)N1c1ccc(-c2ccccc2)cc1 [PM-20, N-Biphenyl-4-yl-3,4-bis-(2-hydroxy-ethylsulfanyl)-maleimide]
[2]
  IC50: 4 µM
[3]
  Cell cycle effect: block, mainly in the G1 phase of cell cycle
[4]
  IC50: > 20 µM
[5]
  Activity against PYP1B: essentially no activity
[6]
  IC50: 6 µM
[7]
  IC50: 75 µM
[8]
  IC50: 2.5 µM
[9]
  IC50: 6 µM
[10]
  Concentration needed to inhibit DNA synthesis, normal hepatocytes versus Hep3B: 10 fold
[11]
  IC50: 2.5 µM
[12]
  Binding to the catalytic domain of Cdc25B: binds to the catalytic domain of Cdc25B
[1]; [17]
  IC50: 0.7 µM
[1]; [18]
  IC50: 0.7 µM
[1]
  Potency at Hep3B cell growth inhibition compared with Cpd5: more potent inhibitors than Cpd5
[13]
  Number of tumors: 2 tumors per rat
[14]
  Activity against CD45: essentially no activity
[15]
  Inhibition of de-phosphorylation of ERK 1/2: potent inhibitor
  Tyrosine phosphorylation of EGFR and ERK1/2: appear to induce tyrosine phosphorylation

## CC(=O)Nc1ccc(N2C(=O)C(SCCO)=C(SCCO)C2=O)cc1 [PM-26, N-{4-[3,4-Bis-(2-hydroxy-ethylsulfanyl)-2,5-dioxo-2,5-dihydro-pyrrol-1-yl]-phenyl}-acetamide]
[2]
  IC50: > 20 µM
[4]
  IC50: > 20 µM
[6]
  IC50: > 20 µM
[8]
  IC50: > 20 µM
[9]
  IC50: > 20 µM
[11]
  IC50: > 20 µM
[1]; [18]
  IC50: > 20 µM
[1]
  Inhibition of Hep3B cell growth: did not inhibit

## CCOc1ccc(N2C(=O)C(SCCO)=C(SCCO)C2=O)cc1 [PM-28, 3,4-Bis-(2-hydroxy-ethylsulfanyl)-1-(4-ethoxyphenyl)-pyrrole-2,5-dione]
[1]
  Potency at Hep3B cell growth inhibition compared with Cpd5: more potent inhibitors than Cpd5

## CCCOc1ccc(N2C(=O)C(SCCO)=C(SCCO)C2=O)cc1 [PM-30, 3,4-Bis-(2-hydroxy-ethylsulfanyl)-1-(4-propoxyphenyl)-pyrrole-2,5-dione]
[1]
  Potency at Hep3B cell growth inhibition compared with Cpd5: more potent inhibitors than Cpd5

## O=C1C(SCCO)=C(SCCO)C(=O)N1c1ccc2ccccc2c1 [PM-34, 3,4-Bis-(2-hydroxy-ethylsulfanyl)-1-naphthalen-2-yl-maleimide]
[1]
  Potency at Hep3B cell growth inhibition compared with Cpd5: more potent inhibitors than Cpd5

## O=C1C(SCCO)=C(SCCO)C(=O)N1c1ccc(OCc2ccccc2)cc1 [PM-38, 1-(4-Benzyloxy-phenyl)-3,4-bis-(2-hydroxy-ethylsulfanyl)-pyrrole-2,5-dione]
[1]
  Inhibition of Hep3B cell growth: did not inhibit

## O=C1C(SCCO)=C(SCCO)C(=O)N1c1ccc(-c2ccc([N+](=O)[O-])cc2)cc1 [PM-42, 1-(4′-nitro-biphenyl-4-yl)-3,4-bis-(2-hydroxy-ethylsulfanyl)-pyrrole-2,5-dione]
[1]; [17]
  IC50: ~0.1 µM

## O=C1C(SCCO)=C(SCCO)C(=O)N1c1ccccc1 [PM-I]
[1]; Hep3B cells, 3 days of treatment, read-out: IC50, Hep3B cell growth inhibition
  IC50: 30 µM

## N#CC(=C(/N)Sc1ccccc1N)/C(C#N)=C(\N)Sc1ccccc1N [U0126, reference compound]
[1]; MEK1/2 inhibitor given with PM-20, inhibition of ERK1/2 phosphorylation
  Effect on the growth inhibitory effect of PM-20: antagonized the growth inhibitory effect of PM-20

## CC1=CC(=O)c2ccccc2C1=O [Vitamin K3]
[16]
  LC50: 0.5 g/kg
